From publication PMC5877439 (British Journal of Cancer, 2018)

Columns and labels:
[1] = Safety, tolerability, DLT and MTD; assay type: in vivo, human
[2] = Plasma MK-0752 PK analysis; assay type: in vivo, human
Notch signalling = test: Notch signature score in plucked hair follicles; assay type: in vivo, human; details: number of samples limited
[3] = ref Krop et al, 2012, cited from earlier work
[4] = Tumour MK-0752 concentration in biopsies; assay type: in vivo, human; details: between the 1500 and 2100 mg doses; data limited

SMILES	MTD / RP2D of MK-0752 in combination with gemcitabine ([1]; p.o. once weekly, with gemcitabine 1000 mg m^-2)	MK-0752 plasma exposure across the dose groups ([2]; 1200-2400 mg once weekly)	Plasma MK-0752 exposure (AUC0-t) and Cmax, effect of gemcitabine ([2]; day 1 (MK-0752+gemcitabine) vs day -7 (MK-0752 alone), 40 patients)	Relationship between MK-0752 dose and fold-change in Notch score (Notch signalling)	Drug exposure with dose, single agent ([3]; phase I studies of MK-0752 alone)	Recommended dose for phase II evaluation (RP2D), single agent ([3]; single-agent studies)	Maximum tolerated dose (MTD), single agent ([3]; weekly schedule, MK-0752 alone)	Tumour MK-0752 concentration across doses [4]	MTD / RP2D of gemcitabine in combination with MK-0752 ([1]; i.v. days 1, 8 and 15 of 28 day cycle, with MK-0752 1800 mg)
O=C(O)CC[C@H]1CC[C@@](c2cc(F)ccc2F)(S(=O)(=O)c2ccc(Cl)cc2)CC1 [MK-0752]	1800 mg	no increment in exposure beyond the RP2D single-agent dose (1800 mg weekly)	did not appear to be affected by the addition of gemcitabine	no relationship	no significant increase in drug exposure between 1800 mg and 3200 mg	1800 mg	3200 mg	no increment	–
Nc1ccn([C@@H]2O[C@H](CO)[C@@H](O)C2(F)F)c(=O)n1 [gemcitabine, 2′,2′,-difluoro-2′,-deoxycytidine, reference compound]	–	–	–	–	–	–	–	–	1000 mg m^-2
